Measurements as given in ChEMBL document CHEMBL5131526, “Substituted N-Heteroaryl-N-Pyridinylacetamides as P2X4 Modulators for Treating Pain” (ACS Med Chem Lett, 2022).

Molecular target: T1, P2X purinoceptor 4 (Homo sapiens, UniProt Q99571)
T1 sequence (Q99571 whole entry): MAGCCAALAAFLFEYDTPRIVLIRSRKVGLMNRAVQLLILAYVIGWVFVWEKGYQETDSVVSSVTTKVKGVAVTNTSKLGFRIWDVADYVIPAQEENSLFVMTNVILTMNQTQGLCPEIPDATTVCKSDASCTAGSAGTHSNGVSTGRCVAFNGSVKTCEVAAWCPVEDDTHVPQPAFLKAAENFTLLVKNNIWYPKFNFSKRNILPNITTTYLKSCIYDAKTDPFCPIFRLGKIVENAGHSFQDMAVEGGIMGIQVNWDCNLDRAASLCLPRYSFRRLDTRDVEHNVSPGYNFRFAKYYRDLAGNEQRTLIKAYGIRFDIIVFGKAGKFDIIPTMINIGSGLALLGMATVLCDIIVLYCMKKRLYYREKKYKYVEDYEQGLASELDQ
Assay: Inhibition of human P2X4 stably expressed in human HEK293 cells assessed as intracellular calcium flux incubated for 30 mins in presence of agonist Benzoylbenzoyl-ATP by Fluo8-AM dye based FLIPR assay
Assay type: cell-based

With `CC(=O)N(c1ccc2ncoc2c1)c1cc(NC(=O)Cc2ccccc2Cl)ccn1` as the compound, how does the IC50 read?
The IC50 was 168 nM.

How did the IC50 turn out when `CC(=O)N(c1ccc2ncsc2c1)c1cc(NC(=O)Cc2ccccc2Cl)ccn1` was run?
The IC50 was 142 nM.

With `CC(=O)N(c1ccn2nccc2c1)c1cc(NC(=O)Cc2c(Cl)cccc2Cl)ccn1` as the compound, how does the IC50 read?
The IC50 was 157 nM.

With `CC(=O)N(c1cc(NC(=O)Cc2c(Cl)cccc2Cl)ccn1)c1ccncc1F` as the compound, how does the IC50 read?
Its IC50 is 171 nM.

With `CC(=O)N(c1ccc2ncoc2c1)c1cc(NC(=O)Cc2cccc(F)c2Cl)ccn1` as the compound, how does the IC50 read?
The IC50 was 143 nM.

Which IC50 does the source give for `CC(=O)N(c1ccc2ncoc2c1)c1cc(NC(=O)Cc2c(Cl)cccc2Cl)ccn1` here?
The IC50 was 141 nM.
